The text below walks through data of PubChem BioAssay (NCI).

What all share (assay): DTP human tumour cell line panel, 48 h
The subject of assay [1] is UO-31 renal.
In assay [2] the test system is OVCAR-3 ovarian.
Assay [3] deals with OVCAR-4 ovarian.
The subject of assay [4] is SR leukemia.
Assay [5] has as its system PC-3 prostate.
Assay [6] deals with NCI-H226 lung.
Assay [7] deals with NCI-H23 lung.
Assay [8] has as its system SK-MEL-28 melanoma.
In assay [9] the test system is RPMI-8226 leukemia.
In assay [10] the test system is A498 renal.
Assay [11] relates to SNB-19 CNS.
For assay [12], the system named is MOLT-4 leukemia.
The subject of assay [13] is M14 melanoma.

Values joined by “and” are separate entries in the source; they are usually repeats but may differ in a detail not shown here. Equal entries are not always repeated.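 How tested: cells in 96-well plates exposed to compound for 48 hours at five concentrations. GI50: concentration for 50% inhibition of growth. At the TGI there is no net growth.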 Bounds are passed on as bounds.

Regarding `CC(=O)O[C@H]1C[C@]2(C)C(CCC3O[C@@]32C)[C@@]2(CC(c3ccoc3)OC2O)[C@@H]1C` (some centres not stated), the concentration for total growth inhibition (TGI) in [1], in [2], in assay [3], in [4], in [5] and in assay [6] was greater than 100 µM throughout. Besides, the total growth inhibition concentration (TGI) in [7] was greater than 100 µM; in assay [8], greater than 100 µM; in assay [9], 81.1 µM; in assay [10] it was greater than 100 µM; in [11], greater than 100 µM; in assay [12], 93 µM. In assay [13], the total growth inhibition concentration (TGI) was greater than 100 µM.
On to `CCCNC(=S)N/N=C/c1cccc(C)n1`, for which the concentration for total growth inhibition (TGI) in [1] was greater than 100 µM; in assay [3], greater than 100 µM; in assay [4], 48.3 µM; in [5], greater than 100 µM; in assay [6], 72.2 µM; in [7], greater than 100 µM. Moreover, the TGI in [9] is greater than 100 µM; in [10], 87.3 µM; in assay [12], 72.3 µM; in assay [13] it was 27.2 µM.
Consider `OCCN(CCO)c1ccc2c(C(F)(F)F)cc(C(F)(F)F)nc2n1`, for which the TGI in [1], in assay [2], in [3], in assay [4], in assay [5] and in [6] was greater than 100 µM throughout. The total growth inhibition concentration (TGI) in assay [7], in assay [8], in assay [9], in [10], in assay [11] and in [12] was greater than 100 µM each time. This compound also gave a TGI in assay [13] greater than 100 µM.
Take `COc1cc([C@@H]2c3cc4c(cc3[C@@H](NCCNCCO)[C@H]3COC(=O)[C@H]23)OCO4)cc(OC)c1O`: the TGI in [1] was 50 µM and 39.9 µM; in [2], > 66.9 µM and 11.1 µM; in [3], 47.4 µM and > 84.8 µM; in assay [5] it was greater than 100 µM; in assay [6] it was 4.97 µM and 4.5 µM; in assay [7] it was 9.94 µM and 10.8 µM. Further, the total growth inhibition concentration (TGI) in assay [8] is 9.5 µM and 9.02 µM; in [9] it was 3.84 µM; in assay [10], 19.9 µM; in [11], 19.2 µM and > 32.2 µM; in assay [13] it was 28.1 µM and 20.2 µM. In addition, the GI50 in assay [2] is 7.28 µM and 2.31 µM; in assay [4] it was 0.303 µM; in [9], 0.46 µM and 0.522 µM.
Turning to `Cc1cc(N(CCC#N)CCC#N)ccc1/C(N=Nc1cccc([N+](=O)[O-])c1)=N/NC(=O)c1cc(Cl)ccc1O`, the TGI in assay [1] is 70.8 µM; in assay [2], 59.5 µM; in assay [3] it was 92.2 µM; in [4] it was 45 µM; in assay [5], greater than 100 µM; in assay [6] it was greater than 100 µM. For the same compound, the TGI in [7] was 64.1 µM; in assay [8] it was greater than 100 µM; in assay [9] it was 47.5 µM; in assay [10] it was 49.2 µM; in [11], greater than 100 µM; in assay [12], 32.1 µM. Further, in assay [13], the TGI is greater than 100 µM.
Turning to `COc1ccc(C2SCC(=O)N2c2ccc(-c3ccc(-n4c(-c5ccccc5)nc5ccccc5c4=O)cc3)cc2)cc1` (configuration not stated), the concentration for total growth inhibition (TGI) in assay [1] is greater than 100 µM; in assay [2] it was 46.8 µM; in assay [3] it was greater than 100 µM; in assay [4], greater than 100 µM; in [5], greater than 100 µM; in assay [6], greater than 100 µM. In addition, the TGI in assay [7], in assay [8], in assay [9], in assay [10], in assay [11] and in assay [12] was greater than 100 µM each time. The compound further yielded a TGI in assay [13] greater than 100 µM.
On to `c1ccc(N=C2SC(=NNc3ccccc3)SC2=Nc2ccccc2)cc1`, for which the TGI in [1], in [3], in assay [4], in [5], in assay [6] and in [7] was greater than 100 µM each time. Also, the TGI in assay [8], in assay [9], in assay [10], in assay [11] and in assay [12] was greater than 100 µM throughout.
Turning to `O=C1NC2(CCCCC2)N=C2C(Cl)CCCC12Cl` (configuration not stated), the total growth inhibition concentration (TGI) in [1], in [2], in [3], in assay [4], in [5] and in [6] was greater than 100 µM each time. The concentration for total growth inhibition (TGI) in assay [7], in assay [8], in assay [9], in assay [10], in assay [11] and in [12] was greater than 100 µM throughout. This compound had a TGI in [13] greater than 100 µM.
Take `CC(=O)Nc1ncc(Sc2ccccc2C(=O)O)s1`: the TGI in assay [1], in [2], in [4], in assay [5], in assay [6] and in assay [7] was greater than 100 µM in each case. The TGI in [8], in assay [9], in assay [10], in [11], in [12] and in [13] was greater than 100 µM in each case.
For `O=C(/C=C/c1ccc(O)c(O)c1)OCCc1cccc2ccccc12`, the total growth inhibition concentration (TGI) in assay [1] stood at 18.4 µM; in assay [2], 14.1 µM; in assay [3], 23.9 µM; in assay [4] it was 5.64 µM; in assay [5], 16.3 µM; in assay [6], 58.6 µM. Further, the total growth inhibition concentration (TGI) in [7] was determined as 14 µM; in assay [8], 16.9 µM; in assay [9] it was 20.5 µM; in assay [10], 24.8 µM; in [11], 28.4 µM; in assay [12] it was 12.3 µM. The compound further displayed a TGI in assay [13] of 20.3 µM.
Turning to `C1COC(NC(C2CC2)C2CC2)=N1`, the total growth inhibition concentration (TGI) in assay [1], in assay [2], in assay [3], in assay [4], in assay [5] and in assay [6] was greater than 100 µM in each case. In addition, the TGI in [7], in assay [8], in [9], in assay [10], in assay [11] and in assay [12] was greater than 100 µM throughout. Moreover, the TGI in assay [13] is greater than 100 µM.
For `N#Cc1c(-c2ccccc2)/c(=C\O)c(=O)n2c1nc1ccccc12`, the concentration for total growth inhibition (TGI) in assay [1], in assay [3], in [4], in assay [5], in assay [6] and in assay [7] was greater than 100 µM throughout. Besides, the TGI in [8], in [9], in [10], in assay [11], in assay [12] and in assay [13] was greater than 100 µM throughout.
For the compound `O=C(Oc1ccccc1)c1cc2cc(CCl)ccc2oc1=O`, the TGI in assay [1] was 68.1 µM; in assay [2], greater than 100 µM; in [3], 68.9 µM; in assay [4], greater than 100 µM; in assay [5], 29.2 µM; in assay [6], greater than 100 µM. Besides, the TGI in [7] is 42 µM; in assay [8] it was greater than 100 µM; in [9] it was greater than 100 µM; in [10] it was 33.9 µM; in assay [11] it was greater than 100 µM; in [12], greater than 100 µM. In addition, the total growth inhibition concentration (TGI) in assay [13] was 67.1 µM.
Regarding `CC(C)CCC1(O)O[C@H]2C[C@H]3[C@@H]4CCC5CC(=O)C=C[C@]5(C)[C@H]4CC[C@]3(C)[C@H]2[C@@H]1C` (some centres not stated), the TGI in assay [1] worked out at 30.3 µM; in assay [2] it was 22.9 µM; in assay [3], 24.3 µM; in [4], 22.6 µM; in [5], 17.4 µM; in assay [6], 14.8 µM. In addition, the total growth inhibition concentration (TGI) in assay [7] amounted to 14.8 µM; in [8] it was 25 µM; in [9] it was 21.4 µM; in assay [10] it was 28.5 µM; in assay [11], 31.3 µM; in assay [12], 7.15 µM. This compound registered a TGI in assay [13] of 29.8 µM.
For `COc1cccc2cc(C(N)=O)c(=N)oc12`, the total growth inhibition concentration (TGI) in [2], in assay [3], in assay [4], in assay [5], in assay [6] and in [7] was greater than 100 µM in each case. Further, the TGI in assay [8], in assay [9], in [10], in assay [11], in [12] and in [13] was greater than 100 µM throughout.
In the case of `N#Cc1[nH]c(=O)n(-c2ccc(Cl)cc2)c1N`, the TGI in [2], in [3], in assay [4], in assay [5], in assay [6] and in assay [7] was greater than 10 µM throughout. Also, the TGI in assay [8], in assay [9], in assay [10], in assay [11], in assay [12] and in [13] was greater than 10 µM throughout.
In the case of `NNC(=O)c1c(Cl)c(Cl)c(Cl)c(Cl)c1-c1nc2ccccc2[nH]1`, the TGI in assay [1] is 39.5 µM; in [2] it was 24.4 µM; in [4], 15.6 µM; in [5], greater than 100 µM; in assay [6] it was 65.4 µM; in assay [7], 59.5 µM. Besides, the concentration for total growth inhibition (TGI) in assay [8] is 53.4 µM; in assay [9] it was greater than 100 µM; in assay [10], 49.9 µM; in assay [11] it was 88.8 µM; in [12], 26.3 µM; in assay [13] it was 23.6 µM.

Usually TGI stands for the concentration giving total growth inhibition. A lower TGI goes with more potent growth arrest. For orientation: GI50 means the concentration at which growth is held to half of that of the control.
